Measured values from PubChem BioAssay AID248 (DTP/NCI, 2004).
“And” between values parts separate entries of the source, which are not always exact repeats. Equal entries are not always repeated. Toxic doses and inconclusive results are not listed. No stated cut-off is given here; in the data, active means T/C of 150% or more; inactive means T/C below 125%.

System: L1210 leukemia ip in BDF1 mice, survival T/C
Assay: NCI In Vivo Anticancer Drug Screen. Data for tumor model L1210 Leukemia (intraperitoneal) in B6D2F1 (BDF1) mice
Conditions: endpoint: mean survival time, higher = longer survival
Summary of the method: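 Ratio derived from survival: compound-dosed mice over vehicle-dosed mice, all bearing a transplantable tumor.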

[1] = dose: 100.0 mg/kg/injection, schedule: Q01DX009 (ip), vehicle: Klucel (hydroxypropylcellulose) (HPC)
[2] = dose: 200.0 mg/kg/injection, schedule: Q01DX009 (ip), vehicle: Klucel (hydroxypropylcellulose) (HPC)
[3] = dose: 400.0 mg/kg/injection, schedule: Q01DX009 (ip), vehicle: Klucel (hydroxypropylcellulose) (HPC)
[4] = dose: 100.0 mg/kg/injection, schedule: Q04DX003 (ip), vehicle: saline with Tween-80
[5] = dose: 200.0 mg/kg/injection, schedule: Q04DX003 (ip), vehicle: saline with Tween-80
[6] = dose: 400.0 mg/kg/injection, schedule: Q04DX003 (ip), vehicle: saline with Tween-80
[7] = dose: 100.0 mg/kg/injection, schedule: Q01DX001 (ip), vehicle: saline
[8] = dose: 100.0 mg/kg/injection, schedule: Q04DX003 (ip), vehicle: Klucel (hydroxypropylcellulose) (HPC)
[9] = dose: 200.0 mg/kg/injection, schedule: Q01DX001 (ip), vehicle: saline
[10] = dose: 200.0 mg/kg/injection, schedule: Q04DX003 (ip), vehicle: Klucel (hydroxypropylcellulose) (HPC)
[11] = dose: 400.0 mg/kg/injection, schedule: Q01DX001 (ip), vehicle: saline
[12] = dose: 400.0 mg/kg/injection, schedule: Q04DX003 (ip), vehicle: Klucel (hydroxypropylcellulose) (HPC)
[13] = dose: 100.0 mg/kg/injection, schedule: Q01DX009 (ip), vehicle: saline with Tween-80
[14] = dose: 200.0 mg/kg/injection, schedule: Q01DX009 (ip), vehicle: saline with Tween-80

Measured: T/C

CCOC(=O)CNC(=O)CNC(=O)CNC(=O)CCCCSc1ncnc2nc[nH]c12
inactive: dose: 25.0 mg/kg/injection, schedule: Q01DX009 (ip), vehicle: saline 102 % of control | dose: 25.0 mg/kg/injection, schedule: Q01DX009 (oral), vehicle: saline 106 % of control | dose: 50.0 mg/kg/injection, schedule: Q01DX009 (ip), vehicle: saline 110 % of control | dose: 50.0 mg/kg/injection, schedule: Q01DX009 (oral), vehicle: saline 90 % of control | dose: 100.0 mg/kg/injection, schedule: Q01DX009 (ip), vehicle: saline 96 % of control | dose: 100.0 mg/kg/injection, schedule: Q01DX009 (oral), vehicle: saline 98 % of control | dose: 200.0 mg/kg/injection, schedule: Q01DX009 (ip), vehicle: saline 104 % of control | dose: 200.0 mg/kg/injection, schedule: Q01DX009 (oral), vehicle: saline 95 % of control | dose: 400.0 mg/kg/injection, schedule: Q01DX009 (ip), vehicle: saline 98 % of control | dose: 400.0 mg/kg/injection, schedule: Q01DX009 (oral), vehicle: saline 114 % of control | dose: 800.0 mg/kg/injection, schedule: Q01DX009 (ip), vehicle: saline 96 % of control | dose: 800.0 mg/kg/injection, schedule: Q01DX009 (oral), vehicle: saline 101 % of control

Cc1cccc(Cl)c1NC(=O)Oc1ccccc1C(N)=O
inactive: [1] 92 % of control | dose: 100.0 mg/kg/injection, schedule: Q04DX002 (ip), vehicle: Klucel (hydroxypropylcellulose) (HPC) 95 % of control | [2] 100 % of control | dose: 200.0 mg/kg/injection, schedule: Q04DX002 (ip), vehicle: Klucel (hydroxypropylcellulose) (HPC) 100 % of control | [3] 105 % of control | dose: 400.0 mg/kg/injection, schedule: Q04DX002 (ip), vehicle: Klucel (hydroxypropylcellulose) (HPC) 100 % of control

CNC(=O)Oc1cccc(NC(=O)OC(C)(C)C)c1
inactive: [4] 101 % of control | [5] 94 % of control | [6] 95 % of control

Nc1ncnc2c1nnn2C1OC(CO)C(O)C1O (centres undefined)
inactive: dose: 42.0 mg/kg/injection, schedule: Q01DX015 (ip), vehicle: saline 104 % of control | dose: 50.0 mg/kg/injection, schedule: Q01DX001 (ip), vehicle: saline 107 % of control | dose: 63.0 mg/kg/injection, schedule: Q01DX015 (ip), vehicle: saline 98 % of control | dose: 72.0 mg/kg/injection, schedule: Q01DX015 (ip), vehicle: saline 117 % of control | dose: 100.0 mg/kg/injection, schedule: Q01DX001 (ip), vehicle: Klucel (hydroxypropylcellulose) (HPC) 97 % of control | [7] 109 % of control and 106 % of control | [8] 95 % of control | dose: 180.0 mg/kg/injection, schedule: Q01DX001 (ip), vehicle: Klucel (hydroxypropylcellulose) (HPC) 120 % of control | dose: 180.0 mg/kg/injection, schedule: Q01DX001 (ip), vehicle: saline 113 % of control | dose: 200.0 mg/kg/injection, schedule: Q01DX001 (ip), vehicle: Klucel (hydroxypropylcellulose) (HPC) 92 % of control | [9] 116 % of control and 109 % of control | [10] 95 % of control | dose: 270.0 mg/kg/injection, schedule: Q01DX001 (ip), vehicle: Klucel (hydroxypropylcellulose) (HPC) 122 % of control | dose: 400.0 mg/kg/injection, schedule: Q01DX001 (ip), vehicle: Klucel (hydroxypropylcellulose) (HPC) 122 % of control and 97 % of control | [11] 106 % of control | [12] 92 % of control

O=C(Nc1ccc(Cl)cc1C(F)(F)F)OCCOc1ccccc1Cl
inactive: [13] 91 % of control | [14] 95 % of control | dose: 400.0 mg/kg/injection, schedule: Q01DX009 (ip), vehicle: saline with Tween-80 93 % of control

O=[N+]([O-])c1c(Cl)cc(Cl)c([N+](=O)[O-])c1Cl
inactive: [8] 94 % of control | [10] 90 % of control | [12] 94 % of control

CCOC(=O)c1ccc(NC(=O)Sc2ccc(C(C)(C)C)cc2C)cc1
inactive: [13] 96 % of control | [14] 100 % of control

CCOC(=O)C(NC(C)=O)C(=O)OCC
inactive: [1] 103 % of control | [8] 107 % of control | [2] 105 % of control | [10] 107 % of control | [3] 107 % of control | [12] 106 % of control

CCC[N+](C)(C)CC[N+](C)(C)CCC
inactive: [7] 99 % of control | [9] 103 % of control | [11] 101 % of control

COc1ccc(COc2ccc(Cl)cc2)cc1OC
inactive: [4] 109 % of control | [5] 98 % of control | [6] 101 % of control

NCC(=O)NCCCC(=O)O
inactive: dose: 18.75 mg/kg/injection, schedule: Q01DX001 (ip), vehicle: saline 90 % of control | dose: 37.5 mg/kg/injection, schedule: Q01DX001 (ip), vehicle: saline 101 % of control | dose: 75.0 mg/kg/injection, schedule: Q01DX001 (ip), vehicle: saline 104 % of control

COc1ccccc1NC(=O)Nc1ccccc1OC
inactive: [1] 98 % of control | [8] 97 % of control | [2] 104 % of control | [10] 97 % of control | [3] 103 % of control | [12] 94 % of control

CN1CCCN(CCOC(c2ccccc2)c2ccccc2)CC1
inactive: dose: 55.0 mg/kg/injection, schedule: Q01DX Z (ip), vehicle: methylcellulose (MC) 93 % of control | dose: 83.0 mg/kg/injection, schedule: Q01DX Z (ip), vehicle: methylcellulose (MC) 92 % of control

Nc1ccc2nc3ccc(=O)cc-3n(-c3ccccc3)c2c1
inactive: dose: 0.5 mg/kg/injection, schedule: Q01DX Z (ip), vehicle: methylcellulose (MC) 108 % of control | dose: 0.9 mg/kg/injection, schedule: Q01DX Z (ip), vehicle: methylcellulose (MC) 96 % of control and 103 % of control | dose: 1.0 mg/kg/injection, schedule: Q01DX Z (ip), vehicle: methylcellulose (MC) 112 % of control | dose: 1.4 mg/kg/injection, schedule: Q01DX Z (ip), vehicle: methylcellulose (MC) 109 % of control and 110 % of control | dose: 2.0 mg/kg/injection, schedule: Q01DX Z (ip), vehicle: methylcellulose (MC) 116 % of control | dose: 2.1 mg/kg/injection, schedule: Q01DX Z (ip), vehicle: methylcellulose (MC) 107 % of control and 119 % of control | dose: 3.2 mg/kg/injection, schedule: Q01DX Z (ip), vehicle: methylcellulose (MC) 105 % of control and 122 % of control | dose: 5.0 mg/kg/injection, schedule: Q01DX001 (ip), vehicle: carboxymethylcellulose (CMC) 96 % of control | dose: 10.0 mg/kg/injection, schedule: Q01DX001 (ip), vehicle: carboxymethylcellulose (CMC) 105 % of control | dose: 20.0 mg/kg/injection, schedule: Q01DX001 (ip), vehicle: carboxymethylcellulose (CMC) 111 % of control | dose: 40.0 mg/kg/injection, schedule: Q01DX001 (ip), vehicle: carboxymethylcellulose (CMC) 113 % of control

CC1CC(C)(C)N=C(C2(c3ccccc3)CC2)O1 (centres undefined)
inactive: dose: 25.0 mg/kg/injection, schedule: Q01DX009 (ip), vehicle: saline with Tween-80 102 % of control | dose: 50.0 mg/kg/injection, schedule: Q01DX009 (ip), vehicle: saline with Tween-80 98 % of control | dose: 50.0 mg/kg/injection, schedule: Q04DX003 (ip), vehicle: saline with Tween-80 88 % of control | [13] 100 % of control | [4] 95 % of control | [14] 98 % of control

[O-][n+]1onc2ccc(Cl)cc21
inactive: dose: 25.0 mg/kg/injection, schedule: Q01DX009 (ip), vehicle: Klucel (hydroxypropylcellulose) (HPC) 101 % of control | dose: 50.0 mg/kg/injection, schedule: Q01DX009 (ip), vehicle: Klucel (hydroxypropylcellulose) (HPC) 98 % of control | [1] 95 % of control

COC(=O)C1=C(\N2CCCC2)CCCCC/C=C\1C(=O)OC
inactive: dose: 75.0 mg/kg/injection, schedule: Q01DX009 (ip), vehicle: saline with Tween-80 97 % of control | dose: 150.0 mg/kg/injection, schedule: Q01DX009 (ip), vehicle: saline with Tween-80 103 % of control | dose: 300.0 mg/kg/injection, schedule: Q01DX009 (ip), vehicle: saline with Tween-80 107 % of control

COc1cccc(CC#N)c1
inactive: dose: 12.5 mg/kg/injection, schedule: Q01DX001 (ip), vehicle: saline with Tween-80 106 % of control | dose: 25.0 mg/kg/injection, schedule: Q01DX001 (ip), vehicle: saline with Tween-80 93 % of control | dose: 50.0 mg/kg/injection, schedule: Q01DX001 (ip), vehicle: saline with Tween-80 97 % of control
